Measurements published in the supplement of paper PMC13380429.

How the values were obtained:
[1] = test system: A549-ACE2 infected with SARS-CoV-2; experiment: morphology score (similarity to uninfected cells); higher = more like uninfected cells; details: 24 h
[2] = test system: A549-ACE2; experiment: drug-induced phospholipidosis relative to tamoxifen; higher = more phospholipidosis
[3] = test system: Vero E6; experiment: relative viability EC50 (midpoint between 100% and the lowest measured viability); higher = less toxic; details: 72 h
[4] = test system: U2OS; experiment: as above; details: 72 h
[5] = test system: HepG2; experiment: as above; details: 72 h
[6] = test system: Calu-3; experiment: as above; details: 72 h
[7] = test system: Caco-2; experiment: as above; details: 72 h
[8] = test system: A549-ACE2 infected with SARS-CoV-2; experiment: cell count relative to DMSO; higher = less toxic; details: 24 h
[9] = test system: A549-ACE2 infected with SARS-CoV-2; experiment: SARS-CoV-2 infection rate relative to DMSO; higher = more infection; details: 24 h
[10] = test system: Vero E6; experiment: drug sensitivity score (DSS) for viability; higher = more toxic; extreme values may be limits of the assay; details: 72 h
[11] = test system: U2OS; experiment: as above; details: 72 h
[12] = test system: HepG2; experiment: as above; details: 72 h
[13] = test system: Calu-3; experiment: as above; details: 72 h
[14] = test system: Caco-2; experiment: as above; details: 72 h
[15] = test system: Vero E6; experiment: cell viability relative to DMSO; higher = less toxic; details: 72 h
[16] = test system: U2OS; experiment: as above; details: 72 h
[17] = test system: HepG2; experiment: as above; details: 72 h
[18] = test system: Calu-3; experiment: as above; details: 72 h
[19] = test system: Caco-2; experiment: as above; details: 72 h
[20] = test system: A549-ACE2; experiment: phospholipidosis EC50; higher = less potent phospholipidosis inducer

Cc1ccc2cc(-c3c(C)ccc(C(=O)c4c(-c5ccccc5)n(C)n(-c5ccccc5)c4=O)c3N)ccc2n1 [AMG-PERK-44]
Details | SARS-CoV-2 infection rate, [9] [%] | cell count, [8] [%] | cell viability, [15] [%] | cell viability, [16] [%] | cell viability, [17] [%] | cell viability, [18] [%] | cell viability, [19] [%] | morphology score, [1]
1 nM | – | – | 85.8 | 98.4 | 96.5 | 105 | 92.6 | –
10 nM | – | – | 88.9 | 96.7 | 98.4 | 102 | 90.6 | –
100 nM | – | – | 92.9 | 98.1 | 93 | 100 | 75.3 | –
0.3 µM | 107 | 96 | – | – | – | – | – | -0.16
1000 nM | – | – | 98.7 | 102 | 91.3 | 95.7 | 68.5 | –
3 µM | 86 | 101 | – | – | – | – | – | 0.09
10 µM | 91 | 103 | – | – | – | – | – | 0.05
10000 nM | – | – | 116 | 101 | 86.7 | 111 | 97.1 | –
30 µM | 51 | 103 | – | – | – | – | – | 0.57

drug-induced phospholipidosis [%], [2]
Details | 0.3 µM | 0.833333 µM | 3.33333 µM | 6.66667 µM | 10 µM | 30 µM
24 h | 0.1 | -2.94 | -0.56 | 4.07 | 7.05 | 23.2
48 h | 0.46 | -0.23 | 5.6 | 10.1 | 14.1 | 24.3
72 h | 0.916 | 0.798 | 10 | 13.7 | 17.9 | 33.4

Details | drug sensitivity score | relative viability EC50 [µM]
[3] | – | > 10
[4] | – | > 10
[5] | – | > 10
[6] | – | > 10
[7] | – | > 10
[10] | 0 | –
[11] | 0 | –
[12] | 0.2 | –
[13] | 0 | –
[14] | 0 | –

COc1ccc(/C=C2\CCCN=C2c2cccnc2)c(OC)c1 [GTS21]
Details | SARS-CoV-2 infection rate, [9] [%] | cell count, [8] [%] | cell viability, [15] [%] | cell viability, [16] [%] | cell viability, [17] [%] | cell viability, [18] [%] | cell viability, [19] [%] | morphology score, [1]
1 nM | – | – | 107 | 94.8 | 113 | 97.4 | 104 | –
10 nM | – | – | 100 | 105 | 101 | 94.1 | 97.2 | –
100 nM | – | – | 103 | 96.2 | 101 | 101 | 93.9 | –
0.3 µM | 108 | 96 | – | – | – | – | – | -0.18
1000 nM | – | – | 102 | 102 | 104 | 95.3 | 106 | –
3 µM | 99 | 99 | – | – | – | – | – | -0.04
10 µM | 86 | 110 | – | – | – | – | – | 0.24
10000 nM | – | – | 86.3 | 90.9 | 93.7 | 97 | 95.4 | –
30 µM | 28 | 118 | – | – | – | – | – | 0.78

drug-induced phospholipidosis [%], [2]
Details | 0.3 µM | 0.833333 µM | 3.33333 µM | 6.66667 µM | 10 µM | 30 µM
24 h | 2.83 | 0.08 | 1.02 | -1.62 | 5.46 | 7.31
48 h | 4.89 | -1.26 | 2.13 | 1.63 | 7.64 | 10
72 h | 3.83 | -0.539 | 2.57 | 1.51 | 7.5 | 15.1

Details | drug sensitivity score | relative viability EC50 [µM]
[3] | – | > 10
[4] | – | > 10
[5] | – | > 10
[6] | – | > 10
[7] | – | > 10
[10] | 0.1 | –
[11] | 0 | –
[12] | 0 | –
[13] | 0 | –
[14] | 0 | –

CCN(CC)CCOc1ccc(C(O)(Cc2ccc(Cl)cc2)c2ccc(C)cc2)cc1 (stereo unspecified) [Triparanol]
Details | morphology score, 0.1 µM | morphology score, 0.3 µM | morphology score, 1 µM | morphology score, 3 µM | phospholipidosis EC50, 24 h [µM] | phospholipidosis EC50, 48 h [µM] | phospholipidosis EC50, 72 h [µM]
[1] | 0.02 | -0.17 | 0.22 | 0.85 | – | – | –
[20] | – | – | – | – | 2.19 | 2.74 | 3.71

Details | drug sensitivity score
[10] | 0.7
[11] | 1.3
[12] | 6.4
[13] | 5.5

CCCc1cc(C)[nH]c(=O)c1CNC(=O)c1cc(-c2ccc(N3CCN(C(C)C)CC3)nc2)cc2c1cnn2C(C)C [UNC1999]
Details | SARS-CoV-2 infection rate, [9] [%] | cell count, [8] [%] | cell viability, [15] [%] | cell viability, [16] [%] | cell viability, [17] [%] | cell viability, [18] [%] | cell viability, [19] [%] | morphology score, [1]
1 nM | – | – | 95.6 | 99.1 | 109 | 94.2 | 107 | –
10 nM | – | – | 94.6 | 102 | 100 | 103 | 103 | –
100 nM | – | – | 95.2 | 99.3 | 93.3 | 96.5 | 97.6 | –
0.3 µM | 100 | 103 | – | – | – | – | – | 0.06
1000 nM | – | – | 84.7 | 107 | 99.6 | 91.4 | 96.9 | –
3 µM | 87 | 109 | – | – | – | – | – | 0.43
10 µM | 29 | 119 | – | – | – | – | – | 0.8
10000 nM | – | – | 107 | 102 | 88.7 | 89.4 | 83.9 | –
30 µM | 13 | 121 | – | – | – | – | – | 0.6

drug-induced phospholipidosis [%], [2]
Details | 0.3 µM | 0.833333 µM | 3.33333 µM | 6.66667 µM | 10 µM | 30 µM
24 h | 15.7 | -2.03 | 5.96 | 5.07 | 18.5 | 38.5
48 h | 6.9 | -2.52 | 5.26 | 6.51 | 17.6 | 36.4
72 h | 1.41 | -4.2 | 4.48 | 4.14 | 13.9 | 37

Details | drug sensitivity score | relative viability EC50 [µM]
[3] | – | > 10
[4] | – | > 10
[5] | – | > 10
[6] | – | > 10
[7] | – | > 10
[10] | 0 | –
[11] | 0 | –
[12] | 0 | –
[13] | 0.1 | –
[14] | 0.6 | –
